Where “and” joins values, the source holds several entries; their conditions need not be identical. Equal values may be shown once.
How the values were obtained:
in vitro = conditions: human, hela cells, % viability
HeLa = conditions: bulk resorufin, single well, 28.5 h, 10 µM, Bulk resorufin fluorescence

| Compound | viability at 28.5 h, 10 µM (in vitro) [%] | % viability (HeLa) | viability at 28.5 h, 10 µM (in vitro; bulk resorufin, single well) [%] |
| --- | --- | --- | --- |
| O[C@@H]1C[C@H]2CN(Cc3ccsc3)[C@@H](Cc3ccccc3)CN2C1 [CBK285376] | 91.9 | 95.8% | – |
| O=C(O)CCc1nn2c(-c3ccccc3)c(-c3ccccc3)nc2[nH]c1=O [CBK013564] | 86.5 | 94.1% | – |
| COc1ccc(NC(=O)[C@@H]2C=CCN2C(=O)c2ccco2)cc1 [CBK284292] | 88.5 | 77.2% | – |
| Nc1nc(=O)c2cnc3ccc(Cl)cc3c2s1 [CBK288175] | 84.6 | 79.6% | – |
| Cc1ccc(CN2CC3CCCN3C[C@H]2C)o1 (stereo partly drawn) [CBK285407] | 87.1 | 104% | – |
| CC1Cc2ccccc2N1c1ncnc2nc[nH]c12 (stereo not drawn) [CBK287388] | 66.8 | 66.9% | – |
| CC(C)(C)c1nc(CN2CCOCC2)ccc1O [CBK026614C] | 112 | 111% | – |
| CCOC(=O)CSc1nc2ccccc2nc1NC(C)C [CBK107166] | 101 | 111% | – |
| CC[C@H](Cn1ncc2ccccc2c1=O)NC(=O)Cc1ccsc1 [CBK284306] | 98.4 | 88.7% | – |
| Cc1onc(-c2ccccc2)c1C(=O)NCCNC(=O)c1c(-c2ccccc2)noc1C [CBK085092] | 106 | 108% | – |
| O=C(C1CCC1)N1CCC[C@H]1Cn1nc(-c2cccs2)ccc1=O [CBK284251] | 80.9 | 78.8% | – |
| Cn1nnc2cc(NC(=O)N3CC4(C)CC3CC(C)(C)C4)ccc21 (stereo not drawn) [CBK304389] | 94.6 | 95.3% | – |
| C[C@@H](Cn1c(=O)oc2ccccc21)NC(=O)Cc1ccsc1 [CBK284535] | 96.9 | 84.7% | – |
| CNC(=S)N1CCN(c2nsc3ccccc23)CC1 [CBK288515] | 83.5 | 83.2% | – |
| O=C(CN1C(=O)C2CCCCC2C1=O)Nc1ccccc1C(=O)O (stereo not drawn) [CBK264130] | 91.5 | 108% | – |
| C[C@@H]1CN2CCCC2CN1Cc1ccc2ccccc2n1 (stereo partly drawn) [CBK285408] | 101 | 104% | – |
| CCCC(=O)Nc1cc2ccccc2c(N2CCNCC2)n1 [CBK024608T] | 102 | 104% | – |
| CSc1ccc(CN2CCN(Cc3ccc(Br)cc3)CC2)cc1 [CBK027856] | – | 96.4% | 79.2 |
| O=C(CN1C(=O)[C@H]2CCCN2C(=O)c2ccccc21)Nc1ccccc1-c1ccccc1 [CBK286321] | 93.9 | 94.1% | – |
| COc1ccc(CN2CC3CCCN3C[C@H]2C)cc1 (stereo partly drawn) [CBK285412] | 111 | 103% | – |
| CSCC[C@@H]1CN2CCC[C@H]2CN1Cc1cn(C)nc1C [CBK285462] | 95.5 | 107% | – |
| CC(=O)Nc1ccc(S(N)(=O)=O)c2ccccc12 [CBK288522] | 83.5 | 94% | – |
| Oc1ccccc1-c1cc(-c2cc3ccccc3o2)no1 [CBK019513] | 113 | 117% | – |
| O=C(CN1C(=O)[C@@H]2CCCN2C(=O)c2ccccc21)NCCc1ccccc1 [CBK286402] | 87.1 | 90% | – |
| Cc1cc(-c2nccnc2NCCCN2CCCC2=O)cc(C)c1O [CBK037632] | 94.1 | 98% | – |
| Cc1cc(CNS(=O)(=O)c2sc3ccc(Cl)cc3c2C)no1 [CBK062277] | 109 | 92.3% | – |
| O=S(=O)(Nc1ncc(Br)c2cccnc12)c1ccc(-c2ccccc2)cc1 [CBK073885] | 98.8 | 110% | – |

| Compound | viability at 28.5 h, 10 µM (in vitro) [%] | % viability (HeLa) | viability at 28.5 h, 10 µM (in vitro; bulk resorufin, single well) [%] |
| --- | --- | --- | --- |
| O=C(NCCc1ccccc1)[C@@H]1C=CCN1C(=O)c1cccs1 [CBK284320] | 95.2 | 92.9% | – |
| CCN(Cc1ccccc1)C(=O)NCc1cc(C)on1 [CBK155211] | 106 | 92.6% | – |
| CCCCn1cc(CN2CC3CCCN3C[C@H]2C)c(C)n1 (stereo partly drawn) [CBK285433] | 92.9 | 98.7% | – |
| O=C(O)C1CCN(C2CC(=O)N(CCc3ccccc3)C2=O)CC1 (stereo not drawn) [CBK269100] | 97.1 | 97.3% | – |
| COc1ccc(CN2CCCN(c3nccc(OCCN4CCOCC4)n3)CC2)cc1 [CBK083932] | 104 | 108% | – |
| FC(F)(F)c1ccc(Sc2ccccn2)nc1 [CBK093785] | 100 | 111% | – |
| O=S(=O)(/C=C/c1ccncc1)NCc1ccc2c(c1)OCO2 [CBK018566] | 91.3 | 92.8% | – |
| CC(C)[C@@H](CO)Nc1nccnc1-c1cccc(C(=O)O)c1 [CBK036665] | 85.6 | 93% | – |
| COc1ccccc1CC(=O)Nc1ccc(O)cc1C(=O)O [CBK264305] | 105 | 91.2% | – |
| C[C@H]1CN2CCCC2CN1Cc1ccccc1F (stereo partly drawn) [CBK285450] | 96.5 | 103% | – |
| C[C@H](Cn1nc2c(cc1=O)CCCCC2)NC(=O)c1ccco1 [CBK284544] | 84.9 | 88.3% | – |
| Cc1c2c(=O)n(-c3ccccc3)[nH]c2cc(=O)n1CCc1ccccc1 [CBK269995] | 101 | 92.7% and 109% | – |
| Fc1ccc(COc2cc(N3CCCC3)ncn2)cc1 [CBK115675] | 109 | 96.4% | – |
| O=C1CCC(=O)N1CCOc1nccnc1OC1CCN(Cc2cccnc2)CC1 [CBK084339] | 107 | 89.7% | – |
| C[C@H]1CN2CCCC2CN1Cc1cccc(F)c1 (stereo partly drawn) [CBK285425] | 97.7 | 104% | – |
| C=CCNC(=O)[C@H]1C=CCN1S(=O)(=O)c1ccc(F)cc1 [CBK282320] | 83.5 | 89.7% | – |
| CCN(Cc1ccccc1)C(=O)NCc1cccc(C(F)(F)F)c1 [CBK155216] | 110 | 96.1% | – |
| Cc1nn(C)c(N2CCNCC2)c1NC(=O)C1CCC1 [CBK045923T] | 91.8 | 96.2% | – |
| CC(C)C(=O)N1CCC[C@H]1Cn1nc(-c2cccs2)ccc1=O [CBK285469] | 97.8 | 96.1% | – |
| CC1CCc2c(sc3ncnc(SCC(=O)N4CCOCC4)c23)C1 (stereo not drawn) [CBK266192] | 105 | 111% | – |
| CCc1cc(CN(CC)CC)n[nH]1 [CBK018654] | 114 | 94.5% | – |
| C[C@H](Cn1nc2c(cc1=O)CCCCC2)NC(=O)c1ccccc1F [CBK284547] | 89.5 | 91.5% | – |
| CCC1CCCCN1C(=O)c1ccc(C(=O)NC)cc1 (stereo not drawn) [CBK083371] | 95.6 | 103% | – |
| O=C(O)c1cccc(Sc2ncccc2C(F)(F)F)c1 [CBK093589] | 103 | 108% | – |
| CCC(Sc1nc(C)c(Cc2ccccc2)c(=O)[nH]1)C(=O)O (stereo not drawn) [CBK270058] | 91.2 | 91.7% | – |
| CCN(CC)C(=O)Cn1c([C@@H]2CCCO2)cc2cccnc21 [CBK282283] | 105 | 90.4% | – |
| CCC(=O)N1CCC[C@H](Cn2nc(-c3cccs3)ccc2=O)C1 [CBK283046] | 95.3 | 100% | – |

From publication PMC12040169 (PLOS Biology, 2025)
